What was measured:
[1] = tested on: orolabial herpes infection; conditions: 200 mg or 400 mg five times a day for five days; cited from earlier work
herpes labialis = conditions: 2,000 mg twice a day for one day; immunocompetent adult patients; cited from earlier work
[2] = Study 2403: safety and tolerability evaluation; assay type: in vivo, human; conditions: high-dose one-day treatment (750 mg b.i.d. or 1,500 mg q.d.), immunocompetent patients
Text: The assessment of safety is based mainly on the frequency of adverse events. Adverse events are summarized by presenting, for each treatment group, the number and percentage of patients having any adverse event, having an adverse event in each body system and having each individual adverse event. Any other information collected (e.g., severity or relatedness to study medication) will be listed as appropriate.
The safety and ITT populations include all randomized patients who are exposed to (take any) study medication. Using the above definitions, the safety and ITT populations comprise the same patients. For compatibility with the standard presentations, all safety summaries are referenced using the Safety population while appropriate efficacy summaries (for secondary parameters involving both vesicular and non-vesicular lesions) are referenced using the ITT population.

[3] = tested on: recurrent herpes labialis; assay: Study 2403: randomized, double-blind, placebo-controlled trial of patient-initiated one-day therapy, efficacy; assay type: in vivo, human; conditions: for Hazard ratio vs placebo, time to healing of all (non-aborted and aborted) lesions / Proportion of patients with aborted lesions / Time to healing of all (non-aborted and aborted) lesions (median): ITT; for Time to healing of all (non-aborted and aborted) lesions (median): aborted lesions assigned time zero
Text: This study design is a parallel-group, double-blind, double-dummy, randomized placebo-controlled trial of patient initiated therapy in adult immunocompetent patients with recurrent herpes labialis.
Adult immunocompetent patients with a history of recurrent herpes labialis and at least three episodes in the previous 12 months are selected. These patients have a history of prodromal symptoms preceding at least 50% of their herpes labialis episodes and a history of vesicular lesions occurring in at least 50% of those episodes.
After screening, a total of 900 eligible patients are randomly assigned to one of three treatment groups and are dispensed study medication. The overall assignment ratio is 1:1:1. Patients are instructed to initiate treatment within one hour of the first prodromal symptom without any clinical signs of a recurrent episode of herpes labialis.
Group 1, famciclovir 1500 mg daily (1500 mg po followed by placebo 12 hours later)
Group 2, famciclovir 1500 mg daily (750 mg po b.i.d.) or
Group 3, matching placebo capsules (po b.i.d.).
The criteria for evaluation include the primary efficacy variable and secondary efficacy variables. The primary efficacy variable is the investigator-assessed time to healing (re-epithelialization) of the non-aborted primary lesion complex, defined as the time from start of treatment until loss of crust (erythema may have been present). Secondary efficacy variables include time to healing of all non-aborted lesions (primary lesion complex and secondary lesions), time to healing of all lesions (non-aborted and aborted; latter assigned a time to healing of zero), and proportion of patients with aborted lesions.
Lesion healing for vesicular lesions is defined as loss of crust, although erythema may still be present. At each visit starting with Visit 2, the investigator makes assessments based on both the investigator examination of the current visit and patient diary entries since the previous visit. If healing is confirmed, the time of healing is defined as the earliest time it was reported and continuously maintained in the diary. This convention applies to the assessment of both the primary lesion complex and all vesicular lesions.
The Kaplan-Meier method is used to estimate the distribution of time to healing for each treatment group and the median time to healing. Estimated survival curves are plotted. The 95% confidence intervals for the median times to healing are constructed based on the first-order Taylor series approximation of their standard errors using the standard errors of the estimated survival functions. The 95% confidence intervals for between-treatment median differences are constructed using standard errors.
The overall distribution of the time to healing will be compared among treatment groups using the proportional hazards model, with treatment and center as the explanatory, variables. The Efron approximate likelihood method will be used for resolution of ties. Confidence intervals for the hazard ratios will be provided.
Variable 1, the primary efficacy variable, is the investigator-assessed time to healing of the primary lesion complex, defined as the time from start of treatment until loss of crust (for vesicular (classical) lesions progressing through the vesicle/ulcer stage only, erythema is allowed).
The primary efficacy variable, investigator-assessed time to healing of the primary lesion complex, is analyzed over the modified ITT population in two approaches: the primary estimation is based on the Kaplan-Meier method, and statistical testing is based on the proportional hazards model.
Secondary efficacy variables include variables 2-7. Variable 2 is the time to healing (lost of crust) of the primary lesion complex (non-vesicular lesions will be assigned a time of zero). Variable 3 is the time to healing (loss of crust) of all vesicular lesions (non-vesicular lesions will be assigned a time of zero). […]

[4] = tested on: recurrent herpes labialis; conditions: 500 mg three times a day for five days; immunocompetent adult patients; cited from earlier work
[5] = 750 mg b.i.d. for one day, Modified ITT
[6] = 750 mg b.i.d. for one day, Per Protocol
[7] = 1500 mg q.d. single dose, Modified ITT
[8] = 1500 mg q.d. single dose, Per Protocol

Question: Which “Time to healing of vesicular lesions and pain” value [1] does the source give for `Nc1nc2c(ncn2COCCO)c(=O)[nH]1` [acyclovir] here?
Answer: The value was “significant but limited reduction”.

Question: For `CC(C)[C@H](N)C(=O)OCCOCn1cnc2c(=O)[nH]c(N)nc21` [Valacyclovir], which “Median time to healing of lesions as compared to placebo” value (herpes labialis) is on record?
Answer: The value was “reduced by approximately one day”.

Question: With `CC(=O)OCC(CCn1cnc2cnc(N)nc21)COC(C)=O` [Famciclovir, 9-(4-acetoxy-3-acetoxymethylbut-1-yl)-2-aminopurine] as the molecule, how does the Safety and tolerability [2] read?
Answer: The Safety and tolerability was “safe, well-tolerated”.

Question: And the Safety and tolerability ([2]; listed as FCV)?
Answer: The Safety and tolerability was “well tolerated and as safe as placebo”.

Question: What about the “Hazard ratio vs placebo, time to healing of all (non-aborted and aborted) lesions” value ([3]; 750 mg b.i.d. for one day) of the same molecule?
Answer: The value was 1.39.

Question: And the “Proportion of patients with aborted lesions” value ([3]; 750 mg b.i.d. for one day)?
Answer: The value was 29%.

Question: And the “Time to healing of all (non-aborted and aborted) lesions (median)” value ([3]; 750 mg b.i.d. for one day)?
Answer: Its value is 3.0 days.

Question: What about the “Hazard ratio vs placebo, time to healing of all non-aborted (primary and secondary) lesions” value [3, 5] of the same molecule?
Answer: Its value is 2.06.

Question: And the “Hazard ratio vs placebo, time to healing of primary lesion complex” value (“Hazard ratio … of primary lesion complex” for short) [3, 5]?
Answer: The value was 2.05.

Question: And the “Time to healing of all non-aborted (primary and secondary) lesions (median)” value [3, 5]?
Answer: The value was 4.1 days.

Question: What about the “Time to healing of primary lesion complex (median)” value [3, 5] of the same molecule?
Answer: Its value is 4.0 days.

Question: What about the “Hazard ratio … of primary lesion complex” value [3, 6] of the same molecule?
Answer: Its value is 2.06.

Question: What about the “Time to healing of primary lesion complex (median)” value [3, 6] of the same molecule?
Answer: Its value is 4.0 days.

Question: What about the “Hazard ratio vs placebo, time to healing of all (non-aborted and aborted) lesions” value ([3]; 1500 mg q.d. single dose) of the same molecule?
Answer: Its value is 1.34.

Question: What about the “Proportion of patients with aborted lesions” value ([3]; 1500 mg q.d. single dose) of the same molecule?
Answer: The value was 33%.

Question: What about the “Time to healing of all (non-aborted and aborted) lesions (median)” value ([3]; 1500 mg q.d. single dose) of the same molecule?
Answer: The value was 2.9 days.

Question: And the “Hazard ratio vs placebo, time to healing of all non-aborted (primary and secondary) lesions” value [3, 7]?
Answer: Its value is 1.71.

Question: And the “Hazard ratio … of primary lesion complex” value [3, 7]?
Answer: Its value is 1.64.

Question: What about the “Time to healing of all non-aborted (primary and secondary) lesions (median)” value [3, 7] of the same molecule?
Answer: Its value is 4.5 days.

Question: What about the “Time to healing of primary lesion complex (median)” value [3, 7] of the same molecule?
Answer: The value was 4.4 days.

Question: What about the “Hazard ratio … of primary lesion complex” value [3, 8] of the same molecule?
Answer: The value was 1.71.

Question: And the “Time to healing of primary lesion complex (median)” value [3, 8]?
Answer: Its value is 4.4 days.

Question: And the “Size of lesions as compared to placebo” value [4]?
Answer: Its value is “reduction of the size of lesions”.

Question: What about the “Time to healing as compared to placebo” value [4] of the same molecule?
Answer: Its value is “shorter time to healing”.

Reference: US20120329815A1, “Famciclovir for the Treatment of Recurrent Herpes Labialis using a One-Day Treatment” (priority 2005, published 2012)
